Assay results published in patent publication US20030228253A1, “Radiolabelled thioplatin, compositions thereof and methods of cancer treatment” (priority 2002, published 2003).
Entries after “also recorded” stand apart in the source; their conditions may differ.

Experiments:
[1] = background statement; cited from earlier work
[2] = test system: DNA of tumor cells; assay: DNA binding of platinum compounds; details: for DNA binding: pH 6.8 (solid tumor pH norm)
Text: ^195mPlatinum is cytotoxic by its release of “auger” electron at 33/disintegrations and with a half-life of over 4 days. In order to amplify the cytotoxicity of the tumor cells, the final drug radioactive thioplatin must be located on the DNA of tumor cells. […] Radioactive thioplatin can be quantitated in the clinic by nuclear SPECT scanning of the tumor and normal tissues for low-energy photons (65-129 kev) emitted by radioactive platinum.

[3] = Normal tissue toxicity in experimental animals (body weight, white blood cells, BUN, histopathology/biopsy of kidney and intestine); assay type: in vivo
Experimental: Thioplatin administered to experimental animals was assayed for the effects of the drug on body weight, white blood cells, BUN and histophathology of kidneys and small intestines.

[4] = test system: human lung and colon cancer; assay: Tumor cytotoxicity in human tumor xenografts in nude mice; assay type: in vivo
[5] = test system: human squamous carcinoma; details: nude mice bearing a human squamous carcinoma; cited from earlier work
[6] = test system: DNA of tumor cells; details: background statement; cited from earlier work

Molecule	peripheral toxicity by direct biopsy of the kidney and intestinal tract [1]	DNA binding relative to cisplatin ([2]; background statement, compared to cisplatin)	DNA binding [2]	effect on BUN ([3]; experimental animals)	effect on body weight ([3]; experimental animals)	effect on white blood cells ([3]; experimental animals)	histopathology of kidneys and small intestines ([3]; experimental animals)	normal tissue toxicity compared to cisplatin ([3]; human tumor xenografts in nude mice, compared to the standard cisplatin)	tumor cytotoxicity ([4]; human tumor xenografts in nude mice, human lung and colon cancer)	pH dependence of cytotoxicity ([4]; tumor pH 6.8 versus normal pH 7.2 to 7.4)	antitumor effect (tumor growth delay, log of tumor growth, area under the curve) [5]	binding of DNA [6] [nanograms/milligrams]
thioplatin	lack of normal tissue toxicity	one-thousand	13,870 ng/mg	negligible	negligible	negligible	negligible	reduced normal tissue toxicity	cytotoxic to human lung and colon cancer; also recorded: significant tumor cytotoxicity	most effective at an acidic pH	–	–
N.N.[Cl][191Pt][Cl] [^191cisplatin]	–	–	–	–	–	–	–	–	–	–	cytotoxic to the tumor	–
N.N.[Cl][Pt][Cl] [cisplatin]	–	–	14.6 ng/mg	–	–	–	–	–	–	–	–	14.3
